# According to patent US20080280987A1, “Methods of inhibiting angiogenesis and treating angiogenesis-associated diseases” (priority 2006, published 2008):
# Key:
# [1] = tested on: human endothelial cells co-cultured with human fibroblast cells; experiment: Microvessel/tubule formation and disruption assay, TCS CellWorks AngioKit model; format: cell-based; conditions: treated on day 11, stained on day 12
# Procedure: To study the effect of Nab-5404 and Nab-5676 on angiogenesis, the compounds were evaluated in a microvessel formation assay using a TCS CellWorks AngioKit model (TCS CellWorks Ltd., Botolph Claydon, Buckingham UK). The AngioKit model uses human endothelial cells co-cultured with other human cells. The endothelial cells initially form small islands within the culture matrix, then begin to proliferate and then enter a migratory phase during which they move through the matrix to form threadlike tubule structures. These gradually join up to form a network of tubules which closely resemble a capillary bed (at day 9-11). The tubules stain positive for von Willebrand's factor, CD31 (PECAM-1) and ICAM-2.
# In addition to Nab-5404 and Nab-5676, a known vascular targeting agent, combretastatin 4-phosphate (CA4P), was tested for in vitro anti-angiogenic activity. The TCS CellWorks AngioKit model was used according to the manufacturer's instructions. As outlined above, human endothelial cells were co-cultured with human fibroblast cells in a 24 well plate and exposed to Nab-5404, Nab-5676 or CA4P across a range of concentrations (0.01 to 100 μg/ml). […] The length of the tubules was analyzed using ImagePro software and the IC50 of each compound was calculated using Prism software. […]
# [2] = tested on: established HT-29 colon cell tumors; experiment: Anti-tumor activity in HT-29 xenograft mouse model; format: in vivo; conditions: 100 mg/kg every day for 4 doses, tumors 900 mm^3
# Procedure: The anti-tumor activity of Nab-5404 and Nab-5676 was evaluated in a xenograft mouse model. The compounds were tested against established HT-29 colon cell tumors in vivo in two cycles, the first a low-dosage schedule followed by a second high-dosage schedule. Irinotecan was used as a positive control in the study. Mice (n=10) were separated into 8 groups with Nab-5404 and Nab-5676 mice receiving the compounds by intravenous injection. The first cycle consisted of administration of Nab-5404 or Nab-5676 every 3 days for 4 doses for days 0-14 followed by the second cycle which consisted of administration of Nab-5404 or Nab-5676 every 3 days for 4 doses for days 15-30. Irinotecan was administered by intravenous injection at a dose of 60 mg/kg every 3 days for 4 doses. The individual groups are shown in Table 2, wherein 1st cycle refers to days 0-14 and 2nd cycle refers to days 15-30.
# Combretastatin 4-phosphate (CA4P) was also administered to HT-29 tumor-bearing mice in a separate experiment. The mice (n=10) were treated once tumors reached 900 mm^3 with either vehicle or CA4P at the reported MTD of 100 mg/kg on a schedule of every day for 4 doses.
# [3] = tested on: established HT-29 colon cell tumors; conditions: mice, every day for 4 doses; cited from earlier work
smiles,measurement,setting,value
"COc1ccc(/C=C\c2cc(OC)c(OC)c(OC)c2)cc1OP(=O)(O)O [CA4P, combretastatin 4-phosphate]",IC50 disrupting established tubules (tubule length),[1],3 ng/mL
same,Activity in HT-29 tumor model,[2],inactive
same,Reported MTD,[3],100 mg/kg
